These are literature values, as cited in patent US8329734B2, “Topical therapy for migraine” (AFGIN Pharma LLC, priority 2009, dated 2012).

In the case of `CNS(=O)(=O)CCc1ccc2[nH]cc(C3CCN(C)CC3)c2c1` [naratriptan], the oral bioavailability (oral) was approximately 70%. `CN(C)CCc1c[nH]c2ccc(Cn3cncn3)cc12` [rizatriptan]: the metabolism entry (in vivo) is “metabolized by the MAO system”. `CNS(=O)(=O)Cc1ccc2[nH]cc(CCN(C)C)c2c1` [Sumatriptan, 3-(2-(dimethylamino)ethyl)-N-methyl-1H-indole-5-methanesulfonamide]: the metabolism entry (in vivo) is “metabolized by the MAO system”. `CN(C)CCc1c[nH]c2ccc(C[C@H]3COC(=O)N3)cc12` [zolmitriptan]: under “in vivo”, the “crossing of intact blood-brain barrier” value is “does cross an intact blood-brain barrier” and the metabolism entry is listed as “metabolized by the MAO system”.
